These results are taken from patent publication US12577232B2, “N-heterocycle substituted tryptamine derivatives and methods of using” (ENVERIC B[…] INC., priority 2024, dated 2026).

The test system of assay [1] is stressed C57BL/6-Elite mice. The assay can be described thus: Mouse marble burying (MB) assay to assess anxiolytic potential. The following applies: i.p., psilocin 3 mg/kg, compound (XV) 10 mg/kg; vs Vehicle+Stress. The assay is classed as in vivo. As for the experimental part: Marble burying behavior is used to measure the level of anxiety in a rodent when it encounters unfamiliar objects (Deacon, 2006, Nature Protocols 1:122-124). This assay is routinely applied to the study of chronically stressed mice, where drug candidates are evaluated for an ability to diminish stress-induced, anxiety-like behaviours (e.g., Wang et al., ACS Chem. Neurosci. 14:977-987). Positive results in this assay may be interpreted as an indication of therapeutic (anxiolytic) potential in the treatment of various psychiatric disorders. Herein, we applied the marble burying model to investigate whether selected drugs could alleviate anxiety behaviour in stressed mice.
All animal protocols were approved by the University of Calgary Animal Care and Use Committee. C57BL/6-Elite mixed sex mice were obtained from Charles River Laboratories (Toronto, Canada) at 8-9 weeks old. […]
On the testing days, 10 glass marbles (approx. 15 mm in diameter) were evenly spaced on 5 cm of wood-chip bedding (lightly tamped down to make a flat and even surface). […] The number of marbles buried to ⅔rds their depth was measured. Fully buried marbles were counted as 1 and partially (at least ⅔rds) buried marbles were counted as 0.5. […]

The subject of assay [2] is stressed C57BL/6-Elite mice. The assay can be described thus: Mouse sucrose preference (SP) assay to assess antidepressant potential. Format: in vivo. The following applies: i.p., psilocin 3 mg/kg, compound (XV) 10 mg/kg; one day after administration. On the procedure:
Reduced intake of pleasurable substances, e.g., of sucrose water, is a validated behavioral measure of anhedonic/depressive-like state in rodents (Moreau et al., 1992, Eur. Neurpsychopharmocol. 2:43-49; Liu et al., 2018, Nature Protocols 13:1686-1698). […] In the SP assay, cohorts of mice are pre-stressed, leading to a depressed state. The ability of drugs to rescue this state are evaluated.
All animal protocols were approved by the University of Calgary Animal Care and Use Committee. C57BL/6-Elite mixed sex mice were obtained from Charles River Laboratories (Toronto, Canada) at 8-9 weeks old. Mice were maintained on a 12:12 h light/dark schedule (lights on at 07:00 hours) with ad libitum access to food and water and group-housed until 2 days prior to the start of the mild chronic stress paradigm, then mice were single-housed. […]
Mice were introduced to 1% sucrose solution in their drinking water for 24 hrs for 2 days prior to initial sucrose preference testing to reduce impact of novelty. […] The consumption in water, sucrose solution, and total intake of liquids was measured by weighing each bottle before and after the 24-hr experiment. The preference for sucrose was calculated as a percentage of the consumed sucrose solution from the total intake of both water and sucrose solutions. […]

Another assay concerns the target T1, 5-HT2A receptor (Homo sapiens, UniProt P28223).
T1 construct: purchased PerkinElmer ES-313-M400UA
The assay can be described thus: Functional cell-based 5-HT2A assay, antagonism mode (CHO-K1/5-HT2A, 100 nM serotonin, calcium flux). The following applies: CHO-K1/5-HT2A cells, with 100 nM serotonin. The text has this:
A variety of 5-HT2A receptor engagement modes have been correlated with positive outcomes in the treatment of neurological disorders. While agonism is associated with a host of favourable effects, antagonizing the 5-HT2A receptor is also an attractive pharmacological approach. For example, antagonism is known to alleviate both dyskinesisa and psychosis in Parkinson's Disorder and holds promise for other psychiatric diseases (Mestre et al., 2013, Expert Opin. Investig. Drugs 22:411-421). Similarly positive outcomes are noted for inverse agonists (Cummings et al., 2014, Lancet, 383:533-540; Roberts, 2006, Curr. Opin. Invest. Drugs 7:653-660). […]
Stimulation of 5-HT2A coupled to the Gq family proteins leads to activation of the phospholipase C (PLC) pathway, ultimately resulting in the accumulation of cytosolic calcium (Cussac et al., Europ. J. Pharmacol., 2008, 594 (1-3), 32-38). […] Kinetic increases in intracellular calcium levels were measured immediately after addition of ligands every 6.4 s for a total of 3 min using the FlexStation 3 multimode microplate reader and SoftMax Pro 7.1 analysis software (Molecular Devices, moleculardevices.com). […] IC50 values were calculated from the normalized data from GraphPad PRISM software. […]

T1 sequence (P28223 whole entry): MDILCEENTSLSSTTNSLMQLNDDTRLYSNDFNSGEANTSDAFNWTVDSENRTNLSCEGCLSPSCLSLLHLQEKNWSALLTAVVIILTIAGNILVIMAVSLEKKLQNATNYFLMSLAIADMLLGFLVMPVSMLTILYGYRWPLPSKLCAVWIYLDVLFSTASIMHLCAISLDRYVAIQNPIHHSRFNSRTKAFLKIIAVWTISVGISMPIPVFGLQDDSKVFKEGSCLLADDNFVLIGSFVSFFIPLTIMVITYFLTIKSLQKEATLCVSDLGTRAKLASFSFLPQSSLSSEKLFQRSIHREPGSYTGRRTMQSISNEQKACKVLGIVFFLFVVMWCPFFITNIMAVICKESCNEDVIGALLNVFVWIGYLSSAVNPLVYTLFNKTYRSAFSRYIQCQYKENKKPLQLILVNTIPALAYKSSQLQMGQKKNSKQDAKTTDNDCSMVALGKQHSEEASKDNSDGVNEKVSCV

Regarding `CN(C)CCc1c[nH]c2cc(F)cc(N3CCOCC3)c12` [Compound (XV)], the “anxiety-linked (marble burying) behavior in stressed mice” value in assay [1] is recorded as “alleviated”. Besides, in assay [2], the “sucrose preference behaviour in stressed mice vs no drug control” value is “significant preference for sucrose”. The “engagement at the 5-HT2A receptor, antagonist mode” value on 5-HT2A receptor is “antagonism”.
